In article PMC6150246, “Design, Synthesis and Preliminary Biological Evaluation of Novel Benzyl Sulfoxide 2-Indolinone Derivatives as Anticancer Agents” (Molecules : A Journal of Synthetic Chemistry and Natural …, 2017):

Experiments:
[1] = tested on: human lung carcinoma A549; assay: MTS cytotoxicity assay, A549; assay type: cell-based
Description: (§1) To investigate the relationship between anticancer activity and tyrosine kinase inhibitory activity, these compounds were further evaluated for in vitro cytotoxicity against five cancer cell lines (human cervical carcinoma cell line HeLa, human breast carcinoma cell line MCF-7, human liver carcinoma cell line HepG2, human tongue carcinoma cell line SCC-15, and human lung carcinoma A549) using MTS assay. Indo 5 was also used as a reference compound.
(§2) The five types of human cancer cell lines (HeLa, HepG2, MCF-7, SCC-15, and A549) were cultured aseptically using Dulbecco’s modified Eagle’s medium (DMEM) supplemented with 10% (v/v) fetal bovine serum (FBS) and penicillin (100 units mL^−1)/streptomycin ([…]), at pH 7.2 and 5% CO2 humidified atmosphere at 37 °C. After attaining 80% confluence, the cells were trypsinized with 0.25 trypsin–EDTA and diluted with media to a fixed number of cells.
(§3) Cytotoxic activity was assessed using the standard MTS method by using triplicate assay. The cells were seeded into 96-well plates containing the medium at the density of 4000–6000 cells/mL (100 μL/well). The compounds were dissolved in DMSO to the concentration of 100 mM and diluted in a culture medium to the concentrations needed. After 24 h, the cultured cells were treated with concentrations of synthesized compounds (3.125 μM to 100 μM for tumor cells) for 48 h. After 48 h of incubation, the supernatant was replaced by fresh medium (100 μL/well) and 10 μL MTS reagent ([3-(4,5-dimethylthiazol-2-yl)-5-(3-carboxymethoxyphenyl)-2-(4-sulfophenyl)-2H-tetrazolium, inner salt]) was added to each well. The plate was further incubated for 3 h at 37 °C in 5% CO2. The optical absorbance in individual wells was determined at 492 nm using a microplate reader. The inhibition rates were calculated by the following formula: Inhibition rate (%) = (ODnegative control − ODsample)/(ODnegative control − ODblank) × 100%
(§4) IC50 was calculated using GraphPad Prism Software (GraphPad Prism 5, La Jolla, CA, USA). For each concentration, at least three wells were performed to calculate the average parameter.

[2] = tested on: human breast carcinoma cell line MCF-7; assay: MTS cytotoxicity assay, MCF-7; assay type: cell-based
Description: as §1, §2, §3, §4

[3] = tested on: human liver carcinoma cell line HepG2; assay: MTS cytotoxicity assay, HepG2; assay type: cell-based
Description: as §1, §2, §3, §4

[4] = tested on: human cervical carcinoma cell line HeLa; assay: MTS cytotoxicity assay, HeLa; assay type: cell-based; details: for IC50: 48 h treatment; for activity against the HeLa cell line, in words: Indo 5 as reference
Description: as §1, §2, §3, §4

[5] = tested on: human tongue carcinoma cell line SCC-15; assay: MTS cytotoxicity assay, SCC-15; assay type: cell-based
Description: as §1, §2, §3, §4

[6] = target: tyrosine kinase; assay: Tyrosine kinase inhibitory activity assay (self-made ELISA kit); assay type: biochemical; details: for IC50: tyrosine kinase tissue extract, 37 °C 30 min; for tyrosine kinase inhibitory activity, in words: Indo 5 as reference
Experimental: The 16 designed compounds were first evaluated for tyrosine kinase inhibitory activity using ELISA assay. Indo 5 was used as a reference compound. The kit was self-made and is a very effective and economical method for preliminary tyrosine kinase inhibitory activity evaluation.
The tyrosine kinase inhibitory activity assay was performed as described in the literature. Details of the experimental procedures are presented in Supplementary Materials associated with this article. The IC50 was calculated using GraphPad Prism Software (GraphPad Prism 5, La Jolla, CA, USA). For each concentration, at least three wells were performed to calculate the average parameter.
100μL to each well. The plate was covered with its lid, and incubated at 4℃ overnight (10-12 hours). Then it was washed with 200μL elution buffer once, and dried at 37℃ for 2 h. After that, it was washed with 10mM PBS once, dried at room temperature, and then stored at 4℃ […]
2.1.5. Groups: Blank control: 60μL 1×tyrosine kinase buffer + 50μL 1×tyrosine kinase buffer containing ATP; Negative control: 10μL 1×tyrosine kinase buffer + 50μL 1×tyrosine kinase buffer containing tissue extract + 50μL 1×tyrosine kinase buffer containing ATP; Positive control: 10μL 1×tyrosine kinase buffer containing L029 + 50μL 1×tyrosine kinase buffer containing tissue extract + 50μL 1×tyrosine kinase buffer containing ATP; Vehicle control: 10μL 1×tyrosine kinase buffer containing DMSO + 50μL 1×tyrosine kinase buffer containing tissue extract + 50μL 1×tyrosine kinase buffer containing ATP; Compounds to be screened: 10μL 1×tyrosine kinase buffer containing compounds to be tested + 50μL 1× tyrosine kinase buffer containing tissue extract + 50μL 1×tyrosine kinase buffer containing ATP. (First, L029 and the compounds were allowed to interact with the tyrosine kinase tissue extract at room temperature for 10 min in advance, and did the same to the Blank control and the Vehicle control, then 50μL 1×tyrosine kinase buffer containing ATP was added to […]
2.1.6. Tyrosine kinase inhibitory activity assay: 1×tyrosine kinase buffer was prepared by evenly mixing 1 mL 10× tyrosine kinase buffer with 9 mL DDW. The tissue extract was diluted with 1×tyrosine kinase buffer appropriately, mixed with it gently and evenly, and placed on ice. ATP stock solution was mixed with 1×tyrosine kinase buffer at the final concentration of 3mM , and placed on ice. The microplate was added in respective wells with the groups formulated as above, covered with the lid, and incubated at 37℃ for 30 min. The microplate was washed with 200μL elution buffer and tapped until the residual buffer was removed, and this procedure was repeated for five times. To each well, 100μL antibody diluent (antibody elution buffer diluted at a ratio of 1:2000) was added. The microplate was covered with the lid, and incubated at room temperature for 30 min. OPD solution was prepared by addition of 4 mg OPD into a mixture of 4.86 mL 0.1 mol/L citric acid solution and 5.14 mL 0.2 mol/L Na2HPO4 solution, followed by addition of 50μL 30% H202 to allow for complete dissolution, and then was protected from light. The antibody solution was […]
removed. The microplate was washed with 200μL elution buffer and tapped until the residual buffer was removed, and this procedure was repeated for five times. 100μL freshly prepared OPD was added, and reacted at room temperature light tight for precisely 7 min. Negative […]
100μL 2.5 N H2SO4 was added to terminate the reaction. OD
2.1.7. Sample screening: Samples were screened preliminarily by using triplicate assay. The effect of the samples on tyrosine kinase inhibitory activity was tested, and the inhibition rate was calculated. Inhibition rate (%)=(ODnegative control – ODsample) / (ODnegative control* – ODblank) × 100%; *While calculating inhibition rate of positive drugs, ODnegative control in the equation was replaced with ODvehicle control to exclude the influence of DMSO on tyrosine kinase activity. […]
2. S. Praveen Kumar, Jiri Gut, Rita C. […]

[7] = Homo sapiens, A549, 48 h treatment
[8] = Homo sapiens, MCF7, 48 h treatment
[9] = Homo sapiens, HepG2, 48 h treatment
[10] = Homo sapiens, SCC-15, 48 h treatment

Structure (SMILES)	IC50 [1, 7] [µM]	IC50 [2, 8] [µM]	melting point [°C]	IC50 [3, 9] [µM]	IC50 ([4]; Homo sapiens, HeLa) [µM]	IC50 [5, 10] [µM]	IC50 [6] [µM]	tyrosine kinase inhibitory activity, in words [6]	IC50 ([1]; 48 h treatment) [µM]	IC50 ([2]; 48 h treatment) [µM]	IC50 ([3]; 48 h treatment) [µM]	IC50 [4] [µM]	IC50 ([5]; 48 h treatment) [µM]	activity against the HeLa cell line, in words [4]	activity against the HepG2 cell line, in words [3]	activity against the MCF-7 cell line, in words [2]
O=C1Nc2ccccc2/C1=C/[S+]([O-])Cc1ccccc1Br (stereo not drawn) [Compound 6h, (Z)-3-(((2-Bromobenzyl)sulfinyl)methylene)indolin-2-one]	> 100	> 100	198 to 199	98.3 ± 2.04	79.9 ± 1.57	> 100	3.52 ± 0.15	–	–	–	–	–	–	–	–	–
O=C1Nc2ccccc2/C1=C/[S+]([O-])Cc1ccc(Cl)cc1 (stereo not drawn) [Compound 6g, (Z)-3-(((4-Chlorobenzyl)sulfinyl)methylene)indolin-2-one]	> 100	92.6 ± 0.97	193 to 195	75.35 ± 0.72	40.9 ± 0.88	> 100	3.3 ± 0.03	–	–	–	–	–	–	–	–	–
Cc1ccccc1C[S+]([O-])/C=C1\C(=O)Nc2ccccc21 (stereo not drawn) [Compound 6l, (Z)-3-(((2-Methylbenzyl)sulfinyl)methylene)indolin-2-one]	> 100	81.6 ± 2.62	198 to 199	> 100	> 100	> 100	16.02 ± 0.05	weak tyrosine inhibitory activity	–	–	–	–	–	–	–	–
Cc1ccc(C[S+]([O-])/C=C2\C(=O)Nc3ccccc32)cc1 (stereo not drawn) [Compound 6n, (Z)-3-(((4-Methylbenzyl)sulfinyl)methylene)indolin-2-one]	59.6 ± 0.97	55.1 ± 1.51	186 to 188	59 ± 0.97	27.8 ± 0.78	90.5 ± 2.32	4.39 ± 0.23	–	–	–	–	–	–	–	–	–
Cc1ccccc1NS(=O)(=O)c1ccc2c(c1)/C(=C/c1nc3ccccc3[nH]1)C(=O)N2 [Indo 5, reference compound]	–	–	–	–	–	–	11.6 ± 0.79	–	29.16 ± 0.29	24.2 ± 0.49	22.2 ± 0.41	19.6 ± 0.46	28.2 ± 1.08	–	–	–
O=C1Nc2ccc(Br)cc2/C1=C/[S+]([O-])Cc1ccccc1F (stereo not drawn) [Compound 6p, (Z)-5-Bromo-3-(((2-fluorobenzyl)sulfinyl)methylene)indolin-2-one]	> 100	76.4 ± 1.5	208 to 209	> 100	19.8 ± 0.25	> 100	7.93 ± 0.2	weak tyrosine inhibitory activity	–	–	–	–	–	–	–	–
O=C1Nc2ccccc2/C1=C/[S+]([O-])Cc1cccc(Br)c1 (stereo not drawn) [Compound 6i, (Z)-3-(((3-Bromobenzyl)sulfinyl)methylene)indolin-2-one]	64.9 ± 1.57	75.1 ± 1.93	193 to 194	71.8 ± 2.18	48.42 ± 0.14	82.1 ± 3.34	3.32 ± 0.19	–	–	–	–	–	–	–	–	–
O=C1Nc2ccccc2/C1=C/[S+]([O-])Cc1ccccc1F (stereo not drawn) [Compound 6b, (Z)-3-(((2-Fluorobenzyl)sulfinyl)methylene)indolin-2-one]	> 100	49.1 ± 1.08	183 to 184	47.8 ± 1.47	14 ± 0.27	> 100	3.74 ± 0.19	–	–	–	–	–	–	stronger activity than Indo 5	–	–
Cc1cccc(C[S+]([O-])/C=C2\C(=O)Nc3ccccc32)c1 (stereo not drawn) [Compound 6m, (Z)-3-(((3-Methylbenzyl)sulfinyl)methylene)indolin-2-one]	79.32 ± 0.79	41.4 ± 2.2	174 to 175	36 ± 2.13	27 ± 1.2	50.3 ± 1.51	3.85 ± 0.09	–	–	–	–	–	–	–	–	–
O=C1Nc2ccccc2/C1=C/[S+]([O-])Cc1ccc(F)cc1 (stereo not drawn) [Compound 6d, (Z)-3-(((4-Fluorobenzyl)sulfinyl)methylene)indolin-2-one]	90.3 ± 2.14	49.12 ± 0.29	193 to 194	36.2 ± 0.53	25 ± 0.68	65 ± 1.47	9.3 ± 0.47	–	–	–	–	–	–	–	considerable cytotoxic activity	–
O=C1Nc2ccccc2/C1=C/[S+]([O-])Cc1ccccc1Cl (stereo not drawn) [Compound 6e, (Z)-3-(((2-Chlorobenzyl)sulfinyl)methylene)indolin-2-one]	> 100	> 100	202 to 203	96.83 ± 0.95	70.9 ± 1.17	> 100	5.09 ± 0.12	–	–	–	–	–	–	–	–	–
O=C1Nc2ccccc2/C1=C/[S+]([O-])Cc1cccc(Cl)c1 (stereo not drawn) [Compound 6f, (Z)-3-(((3-Chlorobenzyl)sulfinyl)methylene)indolin-2-one]	> 100	93 ± 1.5	192 to 194	86.5 ± 1.15	60.3 ± 1.98	96.8 ± 3.76	5.96 ± 0.14	–	–	–	–	–	–	–	–	–
O=C1Nc2ccccc2/C1=C/[S+]([O-])Cc1cccc(F)c1 (stereo not drawn) [Compound 6c, (Z)-3-(((3-Fluorobenzyl)sulfinyl)methylene)indolin-2-one]	> 100	31.5 ± 0.82	186 to 187	42 ± 0.7	24.4 ± 0.54	49.9 ± 0.93	9.32 ± 0.66	–	–	–	–	–	–	–	–	good antitumor activity
COc1cccc(C[S+]([O-])/C=C2\C(=O)Nc3ccccc32)c1 (stereo not drawn) [Compound 6k, (Z)-3-(((3-Methoxybenzyl)sulfinyl)methylene)indolin-2-one]	62.3 ± 2	59.1 ± 37	181 to 182	49.4 ± 1.33	22.7 ± 0.64	86.7 ± 5.16	2.23 ± 0.14	–	–	–	–	–	–	–	–	–
O=C1Nc2ccccc2/C1=C/[S+]([O-])Cc1ccccc1 (stereo not drawn) [Compound 6a, (Z)-3-((Benzylsulfinyl)methylene)indolin-2-one]	> 100	35.2 ± 1.16	191 to 192	52.1 ± 0.94	11.2 ± 0.42	58.9 ± 0.75	3.16 ± 0.31	–	–	–	–	–	–	stronger activity than Indo 5	–	good antitumor activity
